Test system: Influenza virus A/AA/6/60
Type: cell-based

For “t-octylphenoxypolyethoxyethanol [TRITON X-100]”, the “inhibition of the infectivity of virus” value was “only partially inhibited” and the “reduction of influenza A infection of MDCK cells” value (30 min) was “completely ineffective”.

Source: patent US7655252B2 (priority 1999, dated 2010)
